Values joined by “and” are separate entries in the source; they are usually repeats but may differ in a detail not shown here. Equal entries are not always repeated.
How the values were obtained:
[1] = system: sub-lethally irradiated mouse model; assay: Sub-lethally irradiated (6 Gy) mouse model, ANC; format: in vivo, mice; conditions: 500 mg/kg IP and 300 mg/kg IP after 6 Gy irradiation on day 0
Method: FIG. 9 is a graph of absolute neutrophil count (ANC) response to NaST7 (500 mg/kg IP and 300 mg/kg IP) after sub-lethal does of irradiation where mice were exposed to 6 Gy irradiation on day 0 and daily ST7 (enantiomer) was administered at two doses, beginning day 1.
In particular, absolute neutrophil count (ANC) increased after administration of NaST7 (500 mg/kg IP and 300 mg/kg IP) after sub-lethal does of irradiation (e.g., exposure to 6 Gy irradiation on day 0).

[2] = pH solubility profile; format: physicochemical
Method: Sodium a-methyl hydrocinnamate was added to DI water in excess to determine the saturation solubility in water. The samples (n=3) were shaken and vortexed for about two hours to dissolve sodium a-methyl hydrocinnamate. […] The pH of the saturated solution was determined to be about 10.4.
The pH of the saturated aqueous solution was successively adjusted to pH values of 8, 7, 6, and 5 using 50% v/v phosphoric acid to determine the saturation solubility of each pH. To determine the saturation solubility at each pH, the aqueous layer obtained at each pH was diluted further in water and analyzed by UV. The pH solubility data and plot are presented in Table 1 and FIG. 13A, respectively.

[3] = pH stability profile; format: physicochemical; conditions: for Assay, initial: unit assumed; for Assay, 1 Week 60° C. / Assay, 1 Week RT: in % (unit assumed)
Method: The pH stability profile was determined at pH values of 2, 5, 6, 7, 8, 9, and 13 respectively. A pH 7 phosphate buffer at a buffer concentration of 100 mM was initially prepared. Six different aliquots of this buffer were successively adjusted to pH values of 2, […], 6, 8, 9, and 13 using either 50% v/v phosphoric acid or 1N sodium hydroxide solution. Transferred 0.2 mL of sodium α-methyl hydrocinnamate stock solution and 1 mL of alcohol into a 10.0 mL volumetric flask was made up the volume with each of the seven buffer solutions to yield a final concentration of ˜4 mg/ml of sodium α-methyl hydrocinnamate.
Diluted 0.5 ml of each solution to 5 mL with diluent and analysed by HLPC per AM-013-RO to determine the initial concentration of sodium α-methyl hydrocinnamate. The solution was divided into two parts, one part was kept at room temperature (RT) and the other part was kept at 60° C. to evaluate the stability of sodium α-methyl hydrocinnamate.

[4] = Solubility in pH 4.7 acetate buffer; format: physicochemical; conditions: pH 4.7 acetate buffer (per USP), about 100 mg/mL
Method: The sodium α-methyl hydrocinnamate was added to pH 4.7 acetate buffer (per USP) at a concentration of about 100 mg/mL.

[5] = Solubility in citrate buffer containing 30% cyclodextrin; format: physicochemical
Method: Solubility of sodium a-methyl hydrocinnamate and buffer capacity of pH 5 citrate buffers prepared at four different buffer concentrations were evaluated as presented in Table 3.

[6] = Solubility in phosphate buffer containing 20% cyclodextrin; format: physicochemical; conditions: for Final pH (upon addition of drug): 250 mg/mL
Method: Phosphate buffer solutions at a target pH of 7 were prepared at buffer concentrations of 0.5M, 0.25M, and ˜0.1M, respectively. The buffer solutions contained 20% cyclodextrin.

[7] = pH solubility profile; format: physicochemical; conditions: 200 mg/mL
[8] = buffer pH 4*, pH 5* on addition of drug

## CC(Cc1ccccc1)C(=O)[O-].[Na+] (stereo not drawn) [sodium α-methyl hydrocinnamate]
[1]
  absolute neutrophil count (ANC): increased
[2]; DI water, n=3
  saturation solubility in water: 655 mg/mL
[2]; pH (average) 5
  Solubility, mg/mL, Average: 2.2 mg/mL
[2]; pH (average) 6
  Solubility, mg/mL, Average: 2.8 mg/mL
  Solubility, mg/mL, samples 1, 2, 3: 2.7 mg/mL and 3.6 mg/mL and 2.2 mg/mL
[2]; pH (average) 7
  Appearance: Turbid solution
  Solubility, mg/mL, Average: 559.0 mg/mL
  Solubility, mg/mL, samples 1, 2, 3: 653.5 mg/mL and 579.7 mg/mL and 443.8 mg/mL
[2]; pH (average) 8
  Appearance: Clear solution
  Solubility, mg/mL, Average: 653.3 mg/mL
  Solubility, mg/mL, samples 1, 2, 3: 660.8 mg/mL and 663.6 mg/mL and 635.7 mg/mL
[2]; pH (average) 10
  Appearance: Clear solution
  Solubility, mg/mL, Average: 655.1 mg/mL
  Solubility, mg/mL, samples 1, 2, 3: 631.7 mg/mL and 700.4 mg/mL and 633.3 mg/mL
[2]; pH values of 7 and below
  solubility in aqueous solution: almost insoluble
[2]; water
  pH of the saturated solution: about 10.4
[3]; buffer pH 2
  pH, 1 Week 60° C.: 1.9
  pH, 1 Week RT: 2.2
  Assay, 1 Week 60° C.: 81.2
  Assay, 1 Week RT: 99.8
[3]; buffer pH 2, ~4 mg/ml
  Assay, initial: 95.8%
[3]; [8]
  pH, 1 Week 60° C.: 5.1
  pH, 1 Week RT: 5.3
  Assay, 1 Week 60° C.: 102.3
  Assay, 1 Week RT: 102.9
  Assay, initial: 98.8%
[3]; buffer pH 6
  pH, 1 Week 60° C.: 6.0
  pH, 1 Week RT: 6.3
  Assay, 1 Week 60° C.: 102.9
  Assay, 1 Week RT: 102.9
  Assay, initial: 97.2%
[3]; buffer pH 7
  pH, 1 Week 60° C.: 6.9
  pH, 1 Week RT: 7.2
  Assay, 1 Week 60° C.: 99.6
  Assay, 1 Week RT: 100.7
  Assay, initial: 94%
[3]; buffer pH 8
  pH, 1 Week 60° C.: 8.1
  pH, 1 Week RT: 8.3
  Assay, 1 Week 60° C.: 100.8
  Assay, 1 Week RT: 100.4
  Assay, initial: 97.9%
[3]; buffer pH 9
  pH, 1 Week 60° C.: 9.0
  pH, 1 Week RT: 9.2
  Assay, 1 Week 60° C.: 101.6
  Assay, 1 Week RT: 102.2
  Assay, initial: 98.8%
[3]; buffer pH 13
  pH, 1 Week 60° C.: 12.7
  pH, 1 Week RT: 12.8
  Assay, 1 Week 60° C.: 12.9
  Assay, 1 Week RT: 11.2
  Assay, initial: 23.2%
[3]; pH 2 solution stored for 1 week at 60° C.
  degradation: About 20%
[3]; pH 13, initially
  degradation: About 80%
[3]; pH 13, storage for 1 week at both room temperature and 60° C.
  degradation: 90%
[3]; pH range of 2-9 at room temperature
  time stable: at least 1 week
[3]; pH range of 5 to 9 when stored at 60° C.
  stability: stable for at least one week
[4]
  behaviour in acetate buffer: observed to separate from the aqueous layer
[5]; 0.25M and 0.1M citrate buffer, 30% Trappsol
  change of pH of buffer solution upon addition of target concentration: 1.5-2 units
[5]; 0.5M and 1 M
  solubility in citrate buffers of high concentrations: not soluble
[5]; citrate buffer 0.1 M, 30% Captisol, initial pH 4.9, 100 mg/ml
  Solubility (appearance): Clear
[5]; citrate buffer 0.1 M, 30% Captisol, initial pH 4.9, 250 mg/ml
  Solubility (appearance): Clear
[5]; citrate buffer 0.1 M, 30% Captisol, initial pH 4.9, after addition of drug
  pH: 7.3
[5]; citrate buffer 0.1 M, 30% Trappsol, initial pH 5.1, 100 mg/ml
  Solubility (appearance): Clear
[5]; citrate buffer 0.1 M, 30% Trappsol, initial pH 5.1, 250 mg/ml
  Solubility (appearance): Clear
[5]; citrate buffer 0.1 M, 30% Trappsol, initial pH 5.1, after addition of drug
  pH: 7.0
[5]; citrate buffer 0.25 M, 30% Trappsol, initial pH 5.1, 100 mg/ml
  Solubility (appearance): Clear
[5]; citrate buffer 0.25 M, 30% Trappsol, initial pH 5.1, 250 mg/ml
  Solubility (appearance): Clear
[5]; citrate buffer 0.25 M, 30% Trappsol, initial pH 5.1, after addition of drug
  pH: 6.5
[5]; citrate buffer 1.0, 0.5, 0.25 M, 30% Captisol, initial pH 4.9, 100 mg/ml
  Solubility (appearance): Insoluble
[5]; citrate buffer 1.0, 0.5 M, 30% Trappsol, initial pH 5.1, 100 mg/ml
  Solubility (appearance): Insoluble
[6]; 0.5M, 0.25M, ~0.1M, 20% cyclodextrin, target formulation concentration
  solubility in phosphate buffer solutions: observed to dissolve at the target formulation concentration
[6]; phosphate buffer 0.25 M, 20% Captisol, initial pH 6.3
  Final pH (upon addition of drug): 7.0
[6]; phosphate buffer 0.25 M, 20% Trappsol, initial pH 6.3
  Final pH (upon addition of drug): 6.8
[6]; phosphate buffer 0.5 M, 20% Captisol, initial pH 6.2
  Final pH (upon addition of drug): 6.8
[6]; phosphate buffer 0.5 M, 20% Trappsol, initial pH 6.3
  Final pH (upon addition of drug): 6.7
[6]; phosphate buffer ~0.1 M, 20% Captisol, initial pH 6.8
  Final pH (upon addition of drug): 7.9
[6]; phosphate buffer ~0.1 M, 20% Trappsol, initial pH 6.8
  Final pH (upon addition of drug): 7.6
[7]
  pH of aqueous solution: about 10

— patent US10111846B2, “S isomers of alpha-methyl-hydrocinnamic acid for the treatment of blood disorders” (priority 2009, dated 2018)
